Assays:
[1] = Tolerability in tumor-bearing rats; format: in vivo
Protocol: (§1) The efficacy of MPG disulfide in improving the response to cisplatin in the breast tumor xenograft model in rats was tested. MPG disulfide was tested against two different tumor sizes. These different tumor sizes were achieved by growing the tumor in rats for up to 6 days (small tumor, FIG. 13) or 12 days (large tumor, FIGS. 14 and 15). MPG disulfide was determined to be non-toxic to the animals.
(§2) The response of tumors to MPG disulfide was determined in rats with either small tumors (approximately 139 mm^3) or large tumors (approximately 2837 mm^3). MPG disulfide in physiological saline was administered at 40 mg/Kg/day via IP injections. The control animals were treated with saline. This treatment was continued for three consecutive days. […] Each group (control or MPG disulfide) consists of at least three animals. Each data point is mean of at least three animals with standard error as shown unless smaller than points plotted.
(§3) The improved response of large tumors to cisplatin by MPG disulfide was determined in rats with tumors of approximately 2837 mm^3 in tumor volume. MPG disulfide in physiological saline was administered at 40 mg/kg/day via IP injections. At one hour after MPG disulfide administration, cisplatin (2 mg/kg) was administered to these rats by IP. MPG treatment alone without cisplatin was continued for two more days in these animals. […] Each group (cisplatin or MPG disulfide with cisplatin) consists of at least three animals. Each data point is mean of at least three animals with standard error as shown unless smaller than points plotted.

[2] = tested on: breast tumor xenograft; test: Breast tumor xenograft model in rats, MPG disulfide with or without cisplatin; format: in vivo
Protocol: as §1, §2, §3

[3] = tested on: radiation sensitive human colon cancer cells HCT116; test: Clonogenic (colony) assay, HEDS alone; format: cell-based
Protocol: In FIG. […] The cells were washed and replenished with fresh growth medium. Colony assays were carried out by plating cells at concentration that gives no more than 200 colonies. Each experiment was repeated at least three times with errors as shown unless smaller than points plotted.

[4] = tested on: human colon cancer cells HT29; test: Depletion of intracellular thiols (Ellman's reagent); format: cell-based; settings: HEDS 3 hours
Protocol: […] After three hours of HEDS treatment, the attached cells were washed with cell rinse and lysed with 1 ml of sulphosalicyclic acid (SSA) lysis buffer. The samples were then centrifuged at high speed in a Fisher 59A microfuge and the supernatant was used for quantification of intracellular thiols using Ellman's reagent. Each experiment was repeated at least three times with errors as shown unless smaller than points plotted.

[5] = tested on: human colon cancer cells HCT116; test: as above; format: cell-based; settings: HEDS 3 hours
Protocol: The depletion of intracellular thiols by HEDS in human colon cancer cells HCT116 and HT29 was determined by first depriving the cells of glucose for 4 hours. After three hours of HEDS treatment, the attached cells were washed with cell rinse and lysed with 1 ml of sulphosalicyclic acid (SSA) lysis buffer. The samples were then centrifuged at high speed in a Fisher 59A microfuge and the supernatant was used for quantification of intracellular thiols using Ellman's reagent. Each experiment was repeated at least three times with errors as shown unless smaller than points plotted.
For the estimation of intracellular thiols in HCT116 cells, the cells were incubated with different concentrations of glucose for 4 hours. For FIG. 12, the cells were then treated with HEDS for 3 hours. After treatment, the attached cells were washed with cell rinse and lysed with 1 ml of sulphosalicyclic acid (SSA) lysis buffer. The samples were centrifuged at high speed in a Fisher 59A microfuge and the supernatant was used for quantification of intracellular thiols using Ellman's reagent. Each experiment was repeated at least three times with errors as shown unless smaller than points plotted.

[6] = tested on: breast tumor xenografts; test: Response of tumor xenografts in rats to etoposide with HEDS; format: in vivo; settings: HEDS 10 mg/kg/day IP one hour before etoposide 12 mg/Kg/day IP, three consecutive days, tumor about 8×8 mm
Protocol: The use of HEDS, an oxidant/disulfide, to increase the response of tumor xenografts to topoisomerase II inhibitor, etoposide, was also investigated. […] The effect of HEDS (0 and 10 mg/kg/day) on the response of tumor to etoposide (12 mg/Kg/day) was determined in rats with tumor of approximately 8×8 mm in size. HEDS in physiological saline was administered at 0 and 10 mg/kg via IP injections. At one hour after HEDS administration, etoposide was administered to these rats by IP. This treatment was continued for three consecutive days. Tumor growth was measured twice a week for up to two weeks.

[7] = tested on: HT29 cells; test: Colony assay, HEDS plus 4 Gy irradiation; format: cell-based, human; settings: HT29, absence of glucose, HEDS 1 hour before 4 Gy irradiation
Protocol: (§4) For FIG. 3, radiation resistant human colon cancer cells HT29 were deprived of glucose for 4 hours and then treated with various concentrations of HEDS for 3 hours. The cells were washed and replenished with fresh growth medium. For FIG. 4, HT29 cells were deprived of glucose for 4 hours, treated with various concentrations of HEDS, and then treated for 1 hour before 4 Gy irradiation. Two hours after irradiation, the cells were washed and replenished with fresh growth medium. Colony assays were carried out by plating cells at concentration that gives no more than 200 colonies. Each experiment was repeated at least three times with errors as shown unless smaller than points plotted. […]

[8] = tested on: breast cancer cell line (MCF7); test: Radiation response (survival after 4Gy γ irradiation) with HEDS; format: cell-based, human; settings: MCF7, absence of glucose
From the text: (§5) FIGS. 17 and 18 show the impact of HEDS on the radiation response of a breast cancer cell line (MCF7) and a prostate cancer cell line (DU145) in the presence and absence of glucose.

[9] = tested on: prostate cancer cell line (DU145); test: as above; format: cell-based, human; settings: DU145, absence of glucose
From the text: as §5

[10] = tested on: HCT116 cells; test: Colony assay, HEDS plus 4 Gy irradiation; format: cell-based, human; settings: HCT116, absence of glucose, HEDS 1 hour before 4 Gy irradiation
Protocol: For FIG. 2, HCT116 cells were deprived of glucose for 4 hours, treated with various concentrations of HEDS for 1 hour, and then exposed to 4 Gy irradiation. Two hours after irradiation, the cells were washed and replenished with fresh growth medium. The colony assay was then performed as described above for FIG. 1.

[11] = tested on: radiation resistant human colon cancer cells HT29; test: Clonogenic (colony) assay, HEDS alone; format: cell-based
Protocol: as §4

## CC(SSC(C)C(=O)NCC(=O)O)C(=O)NCC(=O)O (stereo not drawn) [MPG disulfide, disulfide of mercaptopropionylglycine (MPG) (glycinepropionyldisulfide)]
[1]; MPG disulfide 40 mg/Kg/day IP, three consecutive days
  observable side effects: did not cause any observable side effects
[1]; MPG disulfide 40 mg/kg/day IP with cisplatin 2 mg/kg IP, MPG continued two more days
  observable side effects: did not cause any observable side effects
[1]; rats with breast tumor xenograft
  toxicity to the animals: non-toxic
[2]; MPG disulfide in combination with cisplatin, even large tumors
  effect on tumors: completely eliminated tumors
[2]; large tumors, MPG disulfide 40 mg/kg/day IP (3 days) in combination with cisplatin 2 mg/kg IP
  tumor volume on day 13 after the start of the treatment: 112±47 mm^3
[2]; large tumors, MPG disulfide alone 40 mg/Kg/day IP, day 5 after the treatment
  increase in tumor size: 3 fold
[2]; large tumors, MPG disulfide alone group, baseline
  tumor volume at start of treatment: 2848±538 mm^3
[2]; large tumors, MPG disulfide alone, day 5 after the treatment
  tumor smaller than the untreated animals: 2.5 fold
[2]; large tumors, MPG disulfide alone, day 8
  maximum tumor size: 18,038±1289 mm^3
[2]; large tumors, MPG disulfide in combination with cisplatin, day 13
  tumor smaller compared to cisplatin group: 38 fold
[2]; large tumors, cisplatin and MPG disulfide combination group, baseline
  tumor volume at start of treatment: 2402±218 mm^3
[2]; small tumors, MPG disulfide alone 40 mg/Kg/day IP, three consecutive days
  tumor volume on day 13: 126±119 mm^3
[2]; small tumors, MPG disulfide alone 40 mg/Kg/day IP, to day 13
  growth of small size tumors: completely inhibited the growth
[2]; small tumors, MPG disulfide alone group, baseline
  tumor volume on the day of treatment: 139±4.29 mm^3

## OCCSSCCO [HEDS, hydroxyethyldisulfide]
[3]; HCT116, HEDS alone 3 hours, presence of glucose
  cytotoxic effect (clonogenic survival): little/no cytotoxic effects
[3]; HCT116, absence of glucose (deprived 4 hours), higher concentration of HEDS alone, 3 hours
  decrease in survival: 75%
[4]; HT29, glucose deprived 4 hours
  intracellular thiols: ≥ 40 % of the control
[4]; HT29, with glucose
  intracellular thiols: maintaining the intracellular thiols
[5]; HCT116, glucose deprived 4 hours
  intracellular thiols: ≥ 40 % of the control
[5]; HCT116, low concentrations (1-3 mM) of glucose
  intracellular thiols: intracellular thiol depletion
[5]; HCT116, with glucose
  intracellular thiols: maintaining the intracellular thiols
[6]
  better tumor response with HEDS and etoposide compared to etoposide alone: at least 50%
[7]
  sensitization to radiation: sensitization
[8]
  radiation response: significantly increased
[9]
  radiation response: significantly increased
[10]
  sensitization to radiation: sensitization
[11]; HT29, HEDS alone 3 hours, presence of glucose
  cytotoxic effect (clonogenic survival): little/no cytotoxic effects
[11]; HT29, absence of glucose (deprived 4 hours), higher concentration of HEDS alone
  effect on survival: no significant effect

## N.N.[Cl][Pt][Cl] [Cisplatin, cis-diamine-dichloroplatinum (II), reference compound]
[2]; large tumors, cisplatin alone 2 mg/kg IP
  tumor volume on day 13 after the treatment: 4355±577 mm^3
[2]; large tumors, cisplatin alone group, baseline
  tumor volume at start of treatment: 2948±180 mm^3

From patent US9522164B2, “Disulfide chemotherapeutic agents and methods of use thereof” (Lankenau Institute for Medical Research, priority 2007, dated 2016)
